Measured values as given in ChEMBL document CHEMBL5055656, “Synthesis of novel indole-thiazolidinone hybrid structures as promising scaffold with anticancer potential” (Bioorg Med Chem, 2021).
Calls of active or inactive are those of the source. The calls are words filed in the database; no cut-off is given here.

What was measured:
[1] = (§1) Cytotoxicity against mouse BALB/3T3 cells assessed as cell growth inhibition measured after 48 hrs by LDH assay; type: cell-based; conditions: BALB/3T3 cells
BALB/3T3 [2] = experiment: as §1; type: cell-based; conditions: balb/3t3, 48 h
HepG2 [3] = experiment: Cytotoxicity against human HepG2 cells assessed as cell growth inhibition measured after 48 hrs by MTT assay; type: functional
[4] = Selectivity index, ratio of GI50 for human HaCaT cells to GI50 for human MCF7 cells; type: toxicity; conditions: HaCaT cells versus MCF7 cells, read-out: RatioGI50
HCT-116 [5] = experiment: Induction of apoptosis in human HCT-116 cells assessed as decrease in Cdk2 expression at 45 uM after 24 hrs by Western blot analysis; type: functional, cell-based
HepG2 [6] = experiment: Induction of cell cycle arrest in human HepG2 cells assessed as effect of phospho-Rb expression at 45 uM measured after 24 hrs by Western blot analysis; type: functional, cell-based
HepG2 [7] = experiment: Cytotoxicity against human HepG2 cells assessed as cell growth inhibition measured after 48 hrs by LDH assay; type: functional
[8] = (§2) Cytotoxicity against mouse BALB/3T3 cells assessed as cell growth inhibition measured after 72 hrs by coomassie brilliant blue staining based total cellular protein assay; conditions: BALB/3T3 cells
BALB/3T3 [9] = experiment: as §2; conditions: balb/3t3, 72 h
MCF7 [10] = experiment: Cytotoxicity against human MCF7 cells assessed as cell growth inhibition measured after 72 hrs by MTT assay; type: functional
HepG2 [11] = experiment: Cytotoxicity against human HepG2 cells assessed as cell growth inhibition measured after 72 hrs by neutral red uptake assay; type: functional
BALB/3T3 [12] = experiment: Induction of DNA damage in mouse BALB/3T3 cells assessed as increase in olive tail moment incubated at 55 uM measured after 24 hrs by alkaline Comet assay; type: cell-based; conditions: balb/3t3, 24 h
[13] = Cytotoxicity against mouse BALB/3T3 cells assessed as cell growth inhibition measured after 72 hrs by MTT assay; type: cell-based
HepG2 [14] = experiment: Cytotoxicity against human HepG2 cells assessed as cell growth inhibition measured after 72 hrs by coomassie brilliant blue staining based total cellular protein assay; type: functional
[15] = (§3) Cytotoxicity against mouse BALB/3T3 cells assessed as cell growth inhibition measured after 24 hrs by MTT assay; type: cell-based; conditions: BALB/3T3 cells
BALB/3T3 [16] = experiment: as §3; type: cell-based; conditions: balb/3t3, 24 h
A549 = experiment: Cytotoxicity against human A549 cells assessed as cell growth inhibition measured after 72 hrs by MTT assay; type: functional
[17] = (§4) Cytotoxicity against mouse BALB/3T3 cells assessed as cell growth inhibition measured after 72 hrs by LDH assay; type: cell-based; conditions: BALB/3T3 cells
BALB/3T3 [18] = experiment: as §4; type: cell-based; conditions: balb/3t3, 72 h
MCF7 [19] = experiment: Induction of apoptosis in human MCF7 cells assessed as decrease in Cdk2 expression at 45 uM after 24 hrs by Western blot analysis; type: functional, cell-based
HCT-116 [20] = experiment: Cytotoxicity against human HCT-116 cells assessed as cell growth inhibition measured after 72 hrs by MTT assay; type: functional
HepG2 [21] = experiment: Induction of apoptosis in human HepG2 cells assessed as increase in Cdk2 expression at 45 uM after 24 hrs by Western blot analysis; type: functional, cell-based
HepG2 [22] = experiment: Cytotoxicity against human HepG2 cells assessed as cell growth inhibition measured after 48 hrs by neutral red uptake assay; type: functional
WM793 = experiment: Cytotoxicity against human WM793 cells assessed as cell growth inhibition measured after 72 hrs by MTT assay; type: functional
[23] = Selectivity index, ratio of GI50 for mouse BALA/3T3 cells to GI50 for human HepG2 cells measured after 72 hrs by neutral red uptake assay; type: toxicity; conditions: BALA/3T3 cells versus HepG2 cells, read-out: Selectivity Index
[24] = Selectivity index, ratio of GI50 for mouse BALA/3T3 cells to GI50 for human HepG2 cells measured after 48 hrs by coomassie brilliant blue staining based total cellular protein assay; type: toxicity; conditions: BALA/3T3 cells versus HepG2 cells, read-out: Selectivity Index
[25] = (§5) Cytotoxicity against mouse BALB/3T3 cells assessed as cell growth inhibition measured after 48 hrs by neutral red uptake assay; type: cell-based; conditions: BALB/3T3 cells
BALB/3T3 [26] = experiment: as §5; type: cell-based; conditions: balb/3t3, 48 h
HCT-116 [27] = experiment: Induction of DNA damage in human HCT-116 cells assessed as increase in tail length incubated at 0.7 uM measured after 24 hrs by alkaline Comet assay relative to control; type: functional
[28] = (§6) Cytotoxicity against mouse BALB/3T3 cells assessed as cell growth inhibition measured after 24 hrs by LDH assay; type: cell-based; conditions: BALB/3T3 cells
BALB/3T3 [29] = experiment: as §6; type: cell-based; conditions: balb/3t3, 24 h
[30] = Selectivity index, ratio of GI50 for human HaCaT cells to GI50 for human HepG2 cells; type: toxicity; conditions: HaCaT cells versus HepG2 cells, read-out: RatioGI50
[31] = Selectivity index, ratio of GI50 for mouse BALA/3T3 cells to GI50 for human HepG2 cells measured after 24 hrs by LDH assay; type: toxicity; conditions: BALA/3T3 cells versus HepG2 cells, read-out: Selectivity Index
[32] = (§7) Cytotoxicity against mouse BALB/3T3 cells assessed as cell growth inhibition measured after 24 hrs by coomassie brilliant blue staining based total cellular protein assay; conditions: BALB/3T3 cells
BALB/3T3 [33] = experiment: as §7; conditions: balb/3t3, 24 h
HepG2 [34] = experiment: Induction of apoptosis in human HepG2 cells assessed as activation of cleaved PARP1 expression at 0.7 uM incubated for 24 hrs by Western blot analysis; type: functional, cell-based
MCF7 [35] = experiment: Induction of DNA damage in human MCF7 cells assessed as increase in tail length incubated at 0.7 uM measured after 24 hrs by alkaline Comet assay; type: functional, cell-based
HepG2 [36] = experiment: Cytotoxicity against human HepG2 cells assessed as cell growth inhibition measured after 24 hrs by LDH assay; type: functional
[37] = (§8) Cytotoxicity against mouse BALB/3T3 cells assessed as cell growth inhibition measured after 24 hrs by neutral red uptake assay; type: cell-based; conditions: BALB/3T3 cells
BALB/3T3 [38] = experiment: as §8; type: cell-based; conditions: balb/3t3, 24 h
MCF7 [39] = experiment: Induction of apoptosis in human MCF7 cells assessed as activation of cleaved PARP1 expression at 0.7 uM incubated for 24 hrs by Western blot analysis; type: functional, cell-based
HepG2 [40] = experiment: Cytotoxicity against human HepG2 cells assessed as cell growth inhibition measured after 48 hrs by coomassie brilliant blue staining based total cellular protein assay; type: functional
[41] = Selectivity index, ratio of GI50 for human HaCaT cells to GI50 for human A549 cells; type: toxicity; conditions: HaCaT cells versus A549 cells, read-out: RatioGI50
HepG2 [42] = experiment: Cytotoxicity against human HepG2 cells assessed as cell growth inhibition measured after 72 hrs by LDH assay; type: functional
[43] = Selectivity index, ratio of GI50 for mouse BALA/3T3 cells to GI50 for human HepG2 cells measured after 24 hrs by coomassie brilliant blue staining based total cellular protein assay; type: toxicity; conditions: BALA/3T3 cells versus HepG2 cells, read-out: Selectivity Index

Q: Which results are given for COC(=O)c1[nH]c2ccc(F)cc2c1/C=C1\SC(=S)NC1=O?
A: GI50 at 48 h [1]: 89.7 µM; GI20 (BALB/3T3 [2]): 16.4 µM; GI80 (BALB/3T3 [2]): > 100 µM; GI20 (HepG2 [3]): 0.3 µM; GI80 (HepG2 [3]): 79.4 µM; GI50 (HepG2 [3]; Homo sapiens, HepG2): 16.3 µM; selectivity ratio [4]: 99.4; Activity (HCT-116 [5]): Active; Activity (HepG2 [6]): inactive; GI20 (HepG2 [7]): <0.01 µM; GI80 (HepG2 [7]): 16.2 µM; GI50 (HepG2 [7]; Homo sapiens, HepG2): 0.06 µM; GI50 at 72 h [8]: 48.3 µM; GI20 (BALB/3T3 [9]): 1.6 µM; GI80 (BALB/3T3 [9]): > 100 µM; GI50 (MCF7 [10]): 0.7 µM; GI20 (HepG2 [11]): <0.01 µM; GI80 (HepG2 [11]): 59.6 µM; GI50 (HepG2 [11]; Homo sapiens, HepG2): 7.5 µM; Activity (BALB/3T3 [12]): 3.5; GI50 at 72 h [13]: 40.8 µM; GI20 (HepG2 [14]): 0.08 µM; GI80 (HepG2 [14]): >100 µM; GI50 (HepG2 [14]; Homo sapiens, HepG2): 35.6 µM; GI50 at 24 h [15]: 54.3 µM; GI20 (BALB/3T3 [16]): 7.9 µM; GI80 (BALB/3T3 [16]): > 100 µM; GI50 (A549): 9.7 µM; GI50 at 72 h [17]: 62.8 µM; GI20 (BALB/3T3 [18]): 2.9 µM; GI80 (BALB/3T3 [18]): > 100 µM; Activity (MCF7 [19]): Active; GI50 (HCT-116 [20]): 0.8 µM; Activity (HepG2 [21]): Active; GI20 (HepG2 [22]): 0.06 µM; GI80 (HepG2 [22]): 73.5 µM; GI50 (HepG2 [22]; Homo sapiens, HepG2): 24.5 µM; GI50 (WM793): 80.4 µM; selectivity ratio at 72 h [23]: 8.9; selectivity ratio at 48 h [24]: 2; GI50 at 48 h [25]: > 100 µM; GI20 (BALB/3T3 [26]): 2.4 µM; GI80 (BALB/3T3 [26]): > 100 µM; Activity (HCT-116 [27]): 16.1%; GI50 at 24 h [28]: > 100 µM; GI20 (BALB/3T3 [29]): > 100 µM; GI80 (BALB/3T3 [29]): > 100 µM; selectivity ratio [30]: 5.75; selectivity ratio at 24 h [31]: 323; GI50 at 24 h [32]: > 100 µM; GI20 (BALB/3T3 [33]): 6.1 µM; GI80 (BALB/3T3 [33]): > 100 µM; Activity (HepG2 [34]): Active; Activity (MCF7 [35]): Active; GI20 (HepG2 [36]): <0.01 µM; GI80 (HepG2 [36]): 20.3 µM; GI50 (HepG2 [36]; Homo sapiens, HepG2): 0.31 µM; GI50 at 24 h [37]: > 100 µM; GI20 (BALB/3T3 [38]): 5.4 µM; GI80 (BALB/3T3 [38]): > 100 µM; Activity (MCF7 [39]): Active; GI20 (HepG2 [40]): 1.6 µM; GI80 (HepG2 [40]): >100 µM; GI50 (HepG2 [40]; Homo sapiens, HepG2): 63.9 µM; selectivity ratio [41]: 7.17; GI20 (HepG2 [42]): <0.01 µM; GI80 (HepG2 [42]): 3.6 µM; GI50 (HepG2 [42]; Homo sapiens, HepG2): 0.04 µM; selectivity ratio at 24 h [43]: 1
